Measured values reported in PMC12632547 (bioRxiv, 2025).

Experiments:
DPP-4 = DPP-4 (Homo sapiens, UniProt P27487); assay: In vitro protease stability: DPP-4 half-life assay; type: in vitro ADME; conditions: recombinant DPP-4 enzyme, pH 7.4
[1] = Murine plasma pharmacokinetic; type: in vivo, male ICR mice
human GLP-1R = human GLP-1R (Homo sapiens, UniProt P43220); assay: In vitro GLP-1 receptor potency, cAMP signaling; type: cell-based; conditions: In vitro receptor activity cAMP assay (EC50), CRE-Luc reporter, BHK cells expressing human GLP-1R; mean ± SD, three independent experiments
Sequence of human GLP-1R (P43220 24-463): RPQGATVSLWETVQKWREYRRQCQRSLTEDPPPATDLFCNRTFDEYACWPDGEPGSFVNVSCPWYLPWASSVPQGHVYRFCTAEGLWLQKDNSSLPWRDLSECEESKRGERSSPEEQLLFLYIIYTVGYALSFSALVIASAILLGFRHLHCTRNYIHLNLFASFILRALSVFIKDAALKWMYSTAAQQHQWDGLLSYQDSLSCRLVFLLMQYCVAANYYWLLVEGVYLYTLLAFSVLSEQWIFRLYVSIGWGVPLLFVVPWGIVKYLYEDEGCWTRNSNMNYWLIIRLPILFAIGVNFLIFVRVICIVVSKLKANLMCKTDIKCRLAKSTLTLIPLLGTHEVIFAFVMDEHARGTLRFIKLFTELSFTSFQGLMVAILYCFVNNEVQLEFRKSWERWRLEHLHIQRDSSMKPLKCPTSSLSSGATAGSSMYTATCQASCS

[2] = male, ICR, mouse, plasma, iv, 1 mg kg-1

Sequence of DPP-4 (P27487 whole entry): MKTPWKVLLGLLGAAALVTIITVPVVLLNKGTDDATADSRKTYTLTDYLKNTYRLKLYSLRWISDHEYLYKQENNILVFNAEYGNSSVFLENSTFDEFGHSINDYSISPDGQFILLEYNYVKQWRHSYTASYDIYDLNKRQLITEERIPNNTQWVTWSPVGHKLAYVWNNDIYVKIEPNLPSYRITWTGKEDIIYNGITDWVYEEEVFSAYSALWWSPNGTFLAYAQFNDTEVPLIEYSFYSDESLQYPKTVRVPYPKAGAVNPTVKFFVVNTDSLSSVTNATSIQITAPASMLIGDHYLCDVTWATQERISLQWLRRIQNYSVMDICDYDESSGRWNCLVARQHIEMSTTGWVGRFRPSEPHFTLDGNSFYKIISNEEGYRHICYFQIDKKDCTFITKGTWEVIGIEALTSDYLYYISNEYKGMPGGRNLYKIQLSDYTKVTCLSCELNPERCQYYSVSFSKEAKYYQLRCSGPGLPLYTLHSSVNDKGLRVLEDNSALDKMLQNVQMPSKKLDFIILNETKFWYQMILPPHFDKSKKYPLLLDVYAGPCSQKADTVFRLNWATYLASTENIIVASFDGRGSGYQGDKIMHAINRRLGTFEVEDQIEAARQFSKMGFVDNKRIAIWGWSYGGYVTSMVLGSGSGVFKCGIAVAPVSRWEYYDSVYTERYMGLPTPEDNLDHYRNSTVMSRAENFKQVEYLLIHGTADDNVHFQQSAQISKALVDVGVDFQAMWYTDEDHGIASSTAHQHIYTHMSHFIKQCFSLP

## CC[C@H](C)[C@H](NC(=O)[C@H](Cc1ccccc1)NC(=O)[C@H](CCC(=O)O)NC(=O)[C@H](CCCCN)NC(=O)[C@H](C)NC(=O)[C@H](C)NC(=O)[C@H](CCC(N)=O)NC(=O)CNC(=O)[C@H](CCC(=O)O)NC(=O)[C@H](CC(C)C)NC(=O)[C@H](Cc1ccc(O)cc1)NC(=O)[C@H](CO)NC(=O)[C@H](CO)NC(=O)[C@@H](NC(=O)[C@H](CC(=O)O)NC(=O)[C@H](CO)NC(=O)[C@@H](NC(=O)[C@H](Cc1ccccc1)NC(=O)[C@@H](NC(=O)CNC(=O)[C@H](CCC(=O)O)NC(=O)[C@H](C)NC(=O)N(N)Cc1c[nH]cn1)[C@@H](C)O)[C@@H](C)O)C(C)C)C(=O)N[C@@H](C)C(=O)N[C@@H](Cc1c[nH]c2ccccc12)C(=O)N[C@@H](CC(C)C)C(=O)N[C@H](C(=O)N[C@@H](CCCNC(=N)N)C(=O)NCC(=O)N[C@@H](CCCNC(=N)N)C(=O)NCC(=O)O)C(C)C [AzaH7, [azaHis^7/R^34]-GLP-1(7–37)]
DPP-4
  half-life at 0.1 mmol/l: > 24 h
[1]; [2]
  clearance: ~7 mL/min/kg
  half-life: 1.67 ± 0.52 h
[1]; mice, single IV 1 mg kg^−1, plasma, hours converted to minutes
  plasma half-life: ~1.67 h
Human GLP-1R
  EC50: 0.743 ± 0.164 nM
